Laboratory results: US7557103B2, “Imidazopyridazine compounds” (Eli Lilly and Company, priority 2005, dated 2009)
Numbering of substitutions follows the chain as printed. Read-outs that look alike come from different tables or passages of the source.

Legend:
[1] = in vivo; conditions: male, Sprague-Dawley, rat, iv, 3 mg/kg
Procedure: (§1) To test for volume of distribution, Male Sprague Dawley rats (N=3) are administered a single 3 mg/kg intravenous dose of compound. Multiple plasma samples are collected at time points from 0.08 to 24 hours post-dose. The plasma samples are analyzed by LC/MS/MS to determine the plasma concentrations. Plasma pharmacokinetic calculations are performed to determine the pharmacokinetic parameters including Vdist and plasma clearance (Clp).

[2] = male, Sprague-Dawley, in vivo, iv, 3 mg/kg
Procedure: as §1

[3] = target: T1, binding of ^125I-sauvagine to the cerebellum (Rattus norvegicus, UniProt P35353); test: In vivo potency assessment using ex vivo binding; conditions: oral route, ex vivo binding of 125I-sauvagine to the cerebellum
T1 construct: from tissue; host or cells: rat cerebellum
T1 sequence (P35353 24-415): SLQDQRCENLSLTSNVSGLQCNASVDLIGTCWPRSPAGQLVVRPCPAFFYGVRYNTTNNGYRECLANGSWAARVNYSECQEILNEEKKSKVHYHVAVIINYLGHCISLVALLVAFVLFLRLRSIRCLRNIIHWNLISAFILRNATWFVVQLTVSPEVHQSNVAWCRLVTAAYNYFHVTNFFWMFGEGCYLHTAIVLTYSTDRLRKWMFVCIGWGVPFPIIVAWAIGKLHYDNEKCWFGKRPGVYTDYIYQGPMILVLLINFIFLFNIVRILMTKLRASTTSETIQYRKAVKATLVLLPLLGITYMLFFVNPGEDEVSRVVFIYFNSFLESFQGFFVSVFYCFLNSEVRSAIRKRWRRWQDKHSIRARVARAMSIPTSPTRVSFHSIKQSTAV
Procedure: To assess in vivo potency, a compound of the present invention is evaluated using ex vivo binding. Using the procedures as provided in D. R. Gehlert et al., EJP 509: 145-153 (2005), a compound is administered to a rat via the oral route.

[4] = Rat intravenous pharmacokinetics (volume of distribution, plasma clearance); conditions: for rat Vdist: single intravenous dose (3 mg/kg); for clearance: male, Sprague-Dawley, plasma, iv, 3 mg/kg
Procedure: as §1

[5] = target: T2, human CRF1 (Homo sapiens, UniProt P34998); test: CRF1 filter binding assay; conditions: HEK-hCRF1 membranes, 125I-sauvagine; read-out: Ki (inhibition constant)
T2 construct: expressed in transfected cells; membranes
T2 sequence (P34998 24-415): T1 sequence (P35353 24-415) with R6H, N9S, T13A, V16I, V153M, A163G, V209I, H229Y, R356H
Procedure: The limitations of plasmid-based human CRF1 expression, in terms of generating a recombinant cell line with sufficient receptor density to develop a binding assay, are overcome by using a Phoenix retroviral expression system licensed from Stanford. The stable HEK-hCRF1 cell line is used to prepare membranes and binding reactions (200 μl) are set up as follows: 50 μl of ^125I-sauvagine (0.2 nM final), 50 μl compound and 100 μL CRF1 membrane (25 μg/reaction). The reactions are incubated at room temperature for 2 hours and then terminated by filtration through pre-treated FB Millipore glass fiber filter plates (96 well). The plates are wash twice with ice-cold assay buffer (50 mM tris, 12.5 mM NaCl, 1 mM EDTA, 10 mM MgCl2, 0.05% BSA, pH 7.2), air dried over night and counted with 100 μl Microscint 40 in a MicroBeta counter. Non-specific binding (NSB) is determined in the presence of 0.5 μM non-labeled sauvagine. Triplicate determinations are typically run and the median data points plotted by Graph Pad Prism.

[6] = target: T3, human CRF2 (Homo sapiens, UniProt Q13324); test: CRF2 filter binding assay; conditions: 50 μM compound, HEK-hCRF2 membranes, 125I-sauvagine; read-out: percent inhibition at 50 μM
T3 construct: expressed in transfected cells; membranes
T3 sequence (Q13324 1-411): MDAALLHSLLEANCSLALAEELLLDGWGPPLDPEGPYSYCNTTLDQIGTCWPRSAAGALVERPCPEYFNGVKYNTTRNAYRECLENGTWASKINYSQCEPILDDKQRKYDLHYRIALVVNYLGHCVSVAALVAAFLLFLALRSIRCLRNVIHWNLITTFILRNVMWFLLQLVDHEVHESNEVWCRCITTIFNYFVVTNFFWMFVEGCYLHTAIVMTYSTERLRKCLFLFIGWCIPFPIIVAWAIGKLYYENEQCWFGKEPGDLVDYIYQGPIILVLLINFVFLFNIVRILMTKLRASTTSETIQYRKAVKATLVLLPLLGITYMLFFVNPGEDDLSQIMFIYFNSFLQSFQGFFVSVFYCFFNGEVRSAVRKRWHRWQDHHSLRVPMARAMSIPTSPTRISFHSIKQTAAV
Procedure: The limitations of plasmid-based human CRF2 expression, in terms of generating a recombinant cell line with sufficient receptor density to develop a binding assay, are overcome by using a Phoenix retroviral expression system licensed from Stanford. The stable HEK-hCRF2 cell line is used to prepare membranes and binding reactions (200 A1) are set up as follows: 50 ul of ^125I-sauvagine (0.2 nM final concentration), 501 compound and 100 μl CRF2 membrane (25 μg/reaction). The reactions are incubated at room temperature for 2 hours and then terminated by filtration through pre-treated FB Millipore glass fiber filter plates (96 well). The plates are washed twice with ice-cold assay buffer (50 mM tris, 12.5 mM NaCl, 1 mM EDTA, 10 mM MgCl2, 0.05% BSA, pH 7.2), air dried over night and counted with 100 μl Microscint 40 in a MicroBeta counter. Non-specific binding (NSB) is determined in the presence of 0.5 μM non-labeled sauvagine. Alternatively, compounds are evaluated using a Scintillation Proximity assay. […] Bound radioactivity is assessed using a Wallac Trilux scintillation counter. Binding is assessed typically using triplicate determinations and the median data points plotted by Graph Pad Prism. […]

Compound | clearance [1] | rat Vdist [2] | rat Vdist [4] | further results
CCC(CC)c1cc(C)nn2c(-c3sc4ccccc4c3C)c(C)nc12 [Example 2, 8-(1-ethyl-propyl)-2,6-dimethyl-3-(3-methyl-benzo[b]thiophen-2-yl)-imidazo[1,2-b]pyridazine] | 12 mL/min/kg | 10 L/kg |  | 
CCC(CC)c1cc(C)nn2c(-c3cc4ccc(Cl)cc4n3C)c(C)nc12 [Example 34, 3-(6-chloro-1-methyl-1H-indol-2-yl)-8-(1-ethyl-propyl)-2,6-dimethyl-imidazo[1,2-b]pyridazine] | 14 mL/min/kg | 15 L/kg |  | ED50 [3]: 5.5 mg/kg
CCCN(CCC)c1cc(C)nc2c(-c3cnc(N(C)C)cc3C)c(C)nn12 [NBI30775] |  |  | 76 L/kg | 
CCC(CC)c1cc(C)nn2c(-c3cc4cc(F)ccc4n3C)c(C)nc12 [Example 8, 8-(1-ethyl-propyl)-2,6-dimethyl-3-(5-fluoro-1-methyl-indol-2-yl)-imidazo[1,2-b]pyridazine] | 29 mL/min/kg | 17 L/kg |  | 
CCC(CC)c1cc(C)nn2c(-c3sc4ccc(F)cc4c3C)c(C)nc12 [Example 1, 8-(1-ethyl-propyl)-2,6-dimethyl-3-(5-fluoro-3-methyl-benzo[b]thiophen-2-yl)-imidazo[1,2-b]pyridazine] |  |  | 8 L/kg | clearance [4]: 9 mL/min/kg; Ki [5]: 16.3 nM
CCC(CC)c1cc(C)nn2c(-c3c(C)oc4c(C(C)(C)O)cccc34)c(C)nc12 [Example 88, 2-{3-[8-(1-ethyl-propyl)-2,6-dimethyl-imidazo[1,2-b]pyridazin-3-yl]-2-methyl-benzofuran-7-yl}-propan-2-ol] |  |  |  | Ki [5]: 19.2 ± 4.8 nM; inhibition at 50 µM [6]: 27 ± 3%
CCCCN(CC)c1nc(C)nc2c1c(C)cn2-c1c(C)cc(C)cc1C [CP154526] |  |  | 114 L/kg | clearance [4]: 83 mL/min/kg
